Assay results published in patent US9718790B2, “Triazine derivative and pharmaceutical composition having an analgesic activity comprising the same” (SHIONOGI & CO., LTD., priority 2010, dated 2017).
pIC50: −log10 of the molar value.

molecular target: human P2X3 receptor (Homo sapiens (Human), UniProt P56373); assay: Evaluation of human P2X3 receptor inhibitory activity (Fluo-3 calcium fluorescence, FDSS 3000, ATP stimulation); format: cell-based; conditions: C6BU-1 cells stably expressing human P2X3 receptor;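 also: stimulus was 50 nM ATP with fluorescence followed for 3 min, and the response per well was peak post-ATP fluorescence divided by the reading at measurement start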
Sequence (P56373 whole entry): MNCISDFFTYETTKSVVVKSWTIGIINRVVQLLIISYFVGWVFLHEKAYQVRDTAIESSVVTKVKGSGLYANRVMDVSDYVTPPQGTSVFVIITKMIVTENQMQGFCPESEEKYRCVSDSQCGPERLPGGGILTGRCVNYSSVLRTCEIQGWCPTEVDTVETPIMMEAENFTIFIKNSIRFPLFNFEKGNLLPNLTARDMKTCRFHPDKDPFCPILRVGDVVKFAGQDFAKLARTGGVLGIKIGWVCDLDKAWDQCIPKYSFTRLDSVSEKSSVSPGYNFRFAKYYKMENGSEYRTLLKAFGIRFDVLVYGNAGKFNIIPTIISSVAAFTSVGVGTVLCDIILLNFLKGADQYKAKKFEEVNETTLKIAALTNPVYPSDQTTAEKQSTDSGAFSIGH

First: Cc1cc(/N=c2\[nH]c(=O)n([C@@H]3CCOC3=O)c(=O)n2Cc2ccc(Cl)cc2)ccc1OC(C)C [Compound I-0808]
Second: COC(=O)[C@@H](C)Cn1c(=O)[nH]/c(=N\c2ccc(OC(C)C)c(C)c2)n(Cc2ccc(F)cc2)c1=O [Compound I-0625]
The pIC50 of the first is 0.49 log units lower: 6.69 for the first, 7.18 for the second.

Going from `CCn1c(=O)[nH]/c(=N\c2ccc(Oc3ccc(S(N)(=O)=O)cc3)cc2)n(Cc2ccc(C)cc2)c1=O` [Compound I-2032] to `Cc1ccc(Oc2ccc(/N=c3\[nH]c(=O)n(CCC(=O)O)c(=O)n3Cc3ccc(Cl)cc3)cc2)cn1` [Compound I-1357], the pIC50 falls from 8.40 to 7.60 (0.80 log units). The first is the more potent here.

Compared with `Cc1ccc(Cn2c(=O)n([C@H](C)[C@H](C)C(=O)O)c(=O)[nH]/c2=N\c2ccc(OCC3CC3)cc2)cc1` [Compound I-1341], `COC(=O)[C@@H](C)[C@@H](C)n1c(=O)[nH]/c(=N\c2ccc(OCC3CC3)cc2)n(Cc2ccc(C)cc2)c1=O` [Compound I-1314] is 0.21 log units lower in pIC50: 7.44 for the first, 7.23 for the second.

`CCc1nc2ccc(/N=c3\[nH]c(=O)n(CCCCC(=O)O)c(=O)n3Cc3ccc(Cl)cc3)cc2s1` [Compound I-2185] and `CC(C)Oc1ccc(/N=c2\[nH]c(=O)n(CCCNC(=N)N)c(=O)n2Cc2ccc(Cl)cc2)cc1F` [Compound I-0634] are within 0.2 log units of each other in pIC50: 7.82 for the first, 7.96 for the second.

Going from `Cc1ccc(Cn2c(=O)n(C[C@H](C)C(=O)O)c(=O)[nH]/c2=N\c2ccc(N3CCCCCC3)cc2)cc1` [Compound I-1237] to `COC(=O)[C@@H](C)Cn1c(=O)[nH]/c(=N\c2cccc(OC)c2)n(Cc2ccc(C)cc2)c1=O` [Compound I-1201], the pIC50 falls from 6.74 to 6.10 (0.64 log units).

`CNC(=O)CCn1c(=O)[nH]/c(=N\c2ccc(OC3CCC3)cc2)n(Cc2ccc(Cl)cc2)c1=O` [Compound I-1913] and `COC(=O)[C@@H](C)Cn1c(=O)[nH]/c(=N\c2ccc3nc(C)ccc3c2)n(Cc2ccc(Cl)cc2)c1=O` [Compound I-0790] are within 0.2 log units of each other in pIC50: 7.72 for the first, 7.89 for the second.

First: CC(C)Oc1ccc(/N=c2\[nH]c(=O)n(C(C)(C)C(=O)NCCO)c(=O)n2Cc2ccc(Cl)cc2)cc1Cl [Compound I-0705]
Second: Cc1cc2cc(/N=c3\[nH]c(=O)n([C@@H](C)[C@@H](C)C(=O)O)c(=O)n3Cc3ccc(Cl)cc3)ccc2o1 [Compound I-1351]
The pIC50 of the first is 0.57 log units higher: 7.96 for the first, 7.39 for the second.

`COC(=O)[C@@H](C)Cn1c(=O)[nH]/c(=N\c2cnc(OC3CCC3)c(C)c2)n(Cc2ccc(C)cc2)c1=O` [Compound I-1478] and `COC(=O)[C@H](C)[C@H](C)n1c(=O)[nH]/c(=N\c2cccc(C(F)(F)F)c2)n(Cc2ccc(C)cc2)c1=O` [Compound I-1309] are within 0.2 log units of each other in pIC50: 7.72 for the first, 7.68 for the second.

same assay, conditions: C6BU-1 cells stably expressing human P2X3 receptor, Fluo-3 fluorescence, FDSS 3000

Compared with `CC[C@@H](C)Oc1ccc(/N=c2\[nH]c(=O)n([C@H](C)CC(=O)O)c(=O)n2Cc2ccc(C)cc2)cc1` [Compound I-0936], `CC[C@@H](C)Oc1ccc(/N=c2\[nH]c(=O)n([C@H](C)CC(=O)OC)c(=O)n2Cc2ccc(C)cc2)cc1` [Compound I-0939] is 0.28 log units higher in pIC50: 7.19 for the first, 7.47 for the second. The second is the more potent here.

First: COC(=O)[C@@H](C)Cn1c(=O)nc(Cc2ccc(OC)c(F)c2)n(Cc2ccc(Cl)cc2)c1=O [Compound I-1869]
Second: CC[C@H](C)Oc1ccc(/N=c2\[nH]c(=O)n(C[C@H](C)C(=O)OC)c(=O)n2Cc2ccc(C)cc2)cc1Cl [Compound I-1016]
The pIC50 of the first is 1.29 log units lower: 6.48 for the first, 7.77 for the second.

Compared with `CCOc1ccc(/N=c2\[nH]c(=O)n([C@@H](C)[C@@H](C)C(=O)OC)c(=O)n2Cc2ccc(Cl)cc2)cc1Cl` [Compound I-0916], `COC(=O)[C@H](C)[C@H](C)n1c(=O)[nH]/c(=N\c2ccc3oc4ccccc4c3c2)n(Cc2ccc(Cl)cc2)c1=O` [Compound I-1827] is 1.68 log units lower in pIC50: 7.72 for the first, 6.04 for the second. The first is the more potent here.

First: CCn1c(=O)[nH]/c(=N\c2ccc(Oc3cccc(CC(=O)O)c3)cc2)n(Cc2ccc(Cl)cc2)c1=O [Compound I-1894]
Second: C[C@@H](C(=O)O)[C@H](C)n1c(=O)[nH]/c(=N\c2ccc3c(O)cccc3c2)n(Cc2ccc(Cl)cc2)c1=O [Compound I-1826]
The pIC50 of the first is 1.52 log units higher: 7.64 for the first, 6.12 for the second. The first is the more potent here.

Compared with `Cc1ccc(Cn2c(=O)n(CC3(C(=O)O)CC3)c(=O)[nH]/c2=N\c2ccc(OCC3CC3)cc2)cc1` [Compound I-0915], `COC(=O)[C@@H](C)Cn1c(=O)[nH]/c(=N\c2ccc(OC(F)(F)F)cc2)n(Cc2ccc(C)cc2)c1=O` [Compound I-0999] is 0.36 log units lower in pIC50: 7.12 for the first, 6.76 for the second.

First: C=Cc1ccc(Cn2c(=O)n(C[C@H](C)C(=O)OC)c(=O)[nH]/c2=N\c2ccc(OC(C)C)cc2)cc1 [Compound I-1131]
Second: CCOc1ccc(/N=c2\[nH]c(=O)n(C[C@H](C)C(=O)OC)c(=O)n2Cc2ccc(C)cc2)cc1Br [Compound I-1173]
The pIC50 of the first is 1.07 log units lower: 6.98 for the first, 8.05 for the second. The second is the more potent here.

First: Cc1cc(/N=c2\[nH]c(=O)n(CC(=O)C(=O)O)c(=O)n2Cc2ccc(Cl)cc2)ccc1OC(C)C [Compound I-1009]
Second: Cc1cc(/N=c2\[nH]c(=O)n(C3CN(CC(=O)O)C3)c(=O)n2Cc2ccc(Cl)cc2)ccc1OC(C)C [Compound I-1742]
The pIC50 of the first is 0.29 log units higher: 7.16 for the first, 6.87 for the second.

Compared with `CCOC(=O)CCn1c(=O)[nH]/c(=N\c2ccc(O[C@H](C)CC)c(Cl)c2)n(Cc2ccc(C)cc2)c1=O` [Compound I-1020], `COC(=O)[C@@H](C)Cn1c(=O)[nH]/c(=N\c2ccc(OC3CC3)c(Cl)c2)n(Cc2ccc(C)cc2)c1=O` [Compound I-1605] is 0.48 log units lower in pIC50: 8.22 for the first, 7.74 for the second.

`CCc1oc2ccc(/N=c3\[nH]c(=O)n(CC(C)(CO)CO)c(=O)n3Cc3ccc(Cl)cc3)cc2c1C` [Compound I-1644] and `CC(=O)OCC(CO)CCn1c(=O)[nH]/c(=N\c2ccc3nc(C)sc3c2)n(Cc2ccc(Cl)cc2)c1=O` (stereo not shown) [Compound I-1851] are within 0.2 log units of each other in pIC50: 8.30 for the first, 8.40 for the second.

Compared with `C[C@@H](C(=O)O)[C@H](C)n1c(=O)[nH]/c(=N\c2ccc3c(c2)sc(=O)n3CC(F)(F)F)n(Cc2ccc(Cl)cc2)c1=O` [Compound I-1780], `Cc1ccc(Cn2c(=O)n(C[C@H](C)C(=O)O)c(=O)[nH]/c2=N\c2ccc(OC3CC3)c(Cl)c2)cc1` [Compound I-1607] is 1.43 log units higher in pIC50: 6.03 for the first, 7.46 for the second. The second is the more potent here.

Work on `Cc1ccc(Cn2c(=O)n(C[C@H](C)C(=O)O)c(=O)[nH]/c2=N\c2cccc(C3=CCCCC3)c2)cc1` [Compound I-1112] yielded a pIC50 of 6.06.

same assay, conditions: human P2X3 receptor, Test Example 1

Compared with `COC(=O)CCn1c(=O)[nH]/c(=N\c2ccc(Oc3cccc(C#N)n3)cc2)n(Cc2ccc(Cl)cc2)c1=O` [Compound I-2666], `NC(=O)CCn1c(=O)[nH]/c(=N\c2ccc(Oc3cccc(F)n3)cc2)n(Cc2ccc(Cl)cc2)c1=O` [Compound I-2654] is 0.65 log units lower in pIC50: 8.70 for the first, 8.05 for the second. The first is the more potent here.

`Cn1ccc(Oc2ccc(/N=c3\[nH]c(=O)n(CCCO)c(=O)n3Cc3ccc(Cl)cc3)cc2)n1` [Compound I-2413] and `O=c1[nH]/c(=N\c2ccc(Oc3ccn[nH]3)cc2)n(Cc2ccc(Cl)cc2)c(=O)n1CCCO` [Compound I-2452] are the same in pIC50: 7.44 for the first, 7.44 for the second.

Going from `Cn1c(=O)[nH]/c(=N\c2ccc(Oc3cccc(C(=O)O)n3)cc2)n(C[C@H]2CC[C@H](C)CC2)c1=O` [Compound I-2465] to `CCn1c(=O)[nH]/c(=N\c2ccc(Oc3ccc(C(=O)OC)cn3)cc2)n(C[C@H]2CC[C@H](C)CC2)c1=O` [Compound I-2700], the pIC50 falls from 8.40 to 6.45 (1.95 log units). The first is the more potent here.

Going from `O=c1[nH]/c(=N\c2ccc(Oc3cccc(F)n3)cc2)n(Cc2ccc(Cl)cc2)c(=O)n1CC(CO)CO` [Compound I-2582] to `O=c1[nH]/c(=N\c2ccc(Oc3cncc(F)c3)cc2)n(Cc2ccc(Cl)cc2)c(=O)n1C[C@H](O)CO` [Compound I-2334], the pIC50 falls from 8.52 to 8.30 (0.22 log units).

First: C[C@@H](Cn1c(=O)[nH]/c(=N\c2ccc(OCC(F)F)cc2)n(Cc2ccc(Cl)cc2)c1=O)C(=O)O [Compound I-0848]
Second: O=C(O)Cn1c(=O)[nH]/c(=N\c2ccc(Oc3ncns3)cc2)n(Cc2ccc(Cl)cc2)c1=O [Compound I-2659]
The pIC50 of the first is 0.66 log units higher: 7.22 for the first, 6.56 for the second. The first is the more potent here.

First: C=COc1ccc(/N=c2\[nH]c(=O)n(C[C@H](C)C(=O)O)c(=O)n2Cc2ccc(C)cc2)cc1Cl [Compound I-1549]
Second: COC(=O)[C@@H](C)Cn1c(=O)[nH]/c(=N\c2cc(Cl)cc(Cl)c2)n(Cc2ccc(C)cc2)c1=O [Compound I-1497]
The pIC50 of the first is 1.89 log units higher: 8.10 for the first, 6.21 for the second. The first is the more potent here.

First: Cn1c(=O)[nH]/c(=N\c2ccc(Oc3cnc(C(=O)O)cn3)cc2)n(Cc2ccc(Cl)cc2)c1=O [Compound I-2386]
Second: CCn1c(=O)[nH]/c(=N\c2ccc(Oc3ccnc(C(N)=O)n3)cc2)n(Cc2ccc(Cl)cc2)c1=O [Compound I-2532]
The pIC50 of the first is 0.41 log units lower: 7.89 for the first, 8.30 for the second. The second is the more potent here.

First: CNC(=O)CCn1c(=O)[nH]/c(=N\c2ccc3nc(C)sc3c2)n(Cc2ccc(Cl)cc2)c1=O [Compound I-1543]
Second: CCn1c(=O)[nH]/c(=N\c2ccc3nc(N4CCC4)sc3c2)n(Cc2ccc(Cl)cc2)c1=O [Compound I-2280]
The pIC50 of the first is 1.32 log units higher: 8.22 for the first, 6.90 for the second. The first is the more potent here.

Compared with `O=c1[nH]/c(=N\c2ccc(Oc3ncns3)cc2)n(Cc2ccc(Cl)cc2)c(=O)n1C[C@H](O)CO` [Compound I-2519], `O=c1[nH]/c(=N\c2ccc(Oc3ncccn3)cc2)n(Cc2ccc(Cl)cc2)c(=O)n1CCCO` [Compound I-2543] is 0.40 log units lower in pIC50: 8.40 for the first, 8.00 for the second. The first is the more potent here.

Compared with `Cc1ccc(Cn2c(=O)n(C[C@H](C)C(=O)O)c(=O)[nH]/c2=N\c2ccc(CC(C)C)c(Cl)c2)cn1` [Compound I-1485], `CCc1cc2cc(/N=c3\[nH]c(=O)n(C[C@H](O)CO)c(=O)n3Cc3ccc(Cl)cc3)ccc2o1` [Compound I-2315] is 1.14 log units higher in pIC50: 6.63 for the first, 7.77 for the second.

First: CCn1c(=O)[nH]/c(=N\c2ccc(Oc3ccnc(NC(=O)NC)c3)cc2)n(Cc2ccc(Cl)cc2)c1=O [Compound I-2425]
Second: CCOC(=O)CNc1cc(Oc2ccc(/N=c3\[nH]c(=O)n(CC)c(=O)n3Cc3ccc(Cl)cc3)cc2)ccn1 [Compound I-2549]
The pIC50 of the first is 0.78 log units higher: 8.70 for the first, 7.92 for the second. The first is the more potent here.

`CC(C)Oc1ccc(/N=c2\ncn(C(C)C)c(=O)n2Cc2ccc(Cl)cc2)cc1` [Compound I-2276, (E)-3-(4-chlorobenzyl)-4-(4-isopropoxyphenylimino)-1-isopropyl-3,4-dihydro-1,3,5-triazine-2(1H)-one] and `COc1ccc(CNc2nc(=O)n(Cc3ccc(Cl)cc3)/c(=N/c3ccc(OC(C)C)cc3)[nH]2)c(OC)c1` [Compound I-2252] are the same in pIC50: 6.11 for the first, 6.11 for the second.

Going from `CCOC(=O)CCn1c(=O)[nH]/c(=N\c2ccc(Oc3ccc(OC)nc3)cc2)n(Cc2ccc(Cl)cc2)c1=O` [Compound I-1523] to `CCn1c(=O)[nH]/c(=N\c2ccc(Oc3cccc(C#N)n3)cc2)n(Cc2ccc(F)cc2)c1=O` [Compound I-2466], the pIC50 falls from 8.52 to 7.80 (0.72 log units). The first is the more potent here.

`NC(=O)Cn1c(=O)[nH]/c(=N\c2ccc(Oc3ccon3)c(F)c2)n(Cc2ccc(Cl)cc2)c1=O` [Compound I-2586] was tested, and the pIC50 was 8.15.
